Results reported in patent US20220112217A1, “PYRAZOLOPYRIMIDINE DERIVATIVE AND USE THEREOF AS PI3K INHIBITOR” (MEDSHINE DISCOVERY INC., priority 2018, published 2022).

Key:
PI3K delta = PI3K delta (Homo sapiens, UniProt O00329); test: In vitro enzyme activity assay (ADP-Glo lipid kinase), PI3K delta; details: PI3Kδ IC50, ATP 40 μM, PIP2:3PS 50 μM, 120 min;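 also: kinase reaction run at 23 °C, then leftover ATP depleted and the ADP formed turned back into ATP, with the luciferin/luciferase signal read as kinase activity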
PI3K delta, sequence (O00329 whole entry): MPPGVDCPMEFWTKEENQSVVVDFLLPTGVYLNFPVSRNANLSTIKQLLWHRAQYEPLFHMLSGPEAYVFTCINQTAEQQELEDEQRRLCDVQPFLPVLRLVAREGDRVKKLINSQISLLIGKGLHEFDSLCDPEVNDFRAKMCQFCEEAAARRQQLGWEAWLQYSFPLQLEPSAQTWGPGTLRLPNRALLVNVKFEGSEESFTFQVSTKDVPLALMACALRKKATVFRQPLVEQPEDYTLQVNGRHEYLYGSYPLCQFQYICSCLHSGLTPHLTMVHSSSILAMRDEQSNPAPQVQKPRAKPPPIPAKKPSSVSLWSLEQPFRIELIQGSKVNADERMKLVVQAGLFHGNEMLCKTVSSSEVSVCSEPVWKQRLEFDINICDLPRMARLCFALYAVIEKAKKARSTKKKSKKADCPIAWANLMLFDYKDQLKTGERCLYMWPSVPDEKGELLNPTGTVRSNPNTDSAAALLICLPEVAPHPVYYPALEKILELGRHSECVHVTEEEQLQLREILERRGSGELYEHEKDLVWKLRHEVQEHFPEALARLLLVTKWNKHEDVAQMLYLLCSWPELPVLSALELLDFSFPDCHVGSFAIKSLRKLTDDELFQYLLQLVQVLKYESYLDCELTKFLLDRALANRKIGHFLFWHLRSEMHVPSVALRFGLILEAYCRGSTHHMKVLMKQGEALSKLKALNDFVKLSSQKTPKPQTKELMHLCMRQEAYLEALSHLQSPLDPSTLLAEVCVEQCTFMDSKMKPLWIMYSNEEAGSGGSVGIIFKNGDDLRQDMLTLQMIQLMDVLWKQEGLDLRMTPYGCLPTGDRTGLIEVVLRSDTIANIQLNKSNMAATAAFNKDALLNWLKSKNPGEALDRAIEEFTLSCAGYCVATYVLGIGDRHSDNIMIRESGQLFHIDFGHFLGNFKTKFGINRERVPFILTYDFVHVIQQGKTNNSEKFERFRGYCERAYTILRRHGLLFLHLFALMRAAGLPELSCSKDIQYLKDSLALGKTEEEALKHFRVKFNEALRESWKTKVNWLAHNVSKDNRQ
PI3K delta, sequence (P27986 whole entry partner): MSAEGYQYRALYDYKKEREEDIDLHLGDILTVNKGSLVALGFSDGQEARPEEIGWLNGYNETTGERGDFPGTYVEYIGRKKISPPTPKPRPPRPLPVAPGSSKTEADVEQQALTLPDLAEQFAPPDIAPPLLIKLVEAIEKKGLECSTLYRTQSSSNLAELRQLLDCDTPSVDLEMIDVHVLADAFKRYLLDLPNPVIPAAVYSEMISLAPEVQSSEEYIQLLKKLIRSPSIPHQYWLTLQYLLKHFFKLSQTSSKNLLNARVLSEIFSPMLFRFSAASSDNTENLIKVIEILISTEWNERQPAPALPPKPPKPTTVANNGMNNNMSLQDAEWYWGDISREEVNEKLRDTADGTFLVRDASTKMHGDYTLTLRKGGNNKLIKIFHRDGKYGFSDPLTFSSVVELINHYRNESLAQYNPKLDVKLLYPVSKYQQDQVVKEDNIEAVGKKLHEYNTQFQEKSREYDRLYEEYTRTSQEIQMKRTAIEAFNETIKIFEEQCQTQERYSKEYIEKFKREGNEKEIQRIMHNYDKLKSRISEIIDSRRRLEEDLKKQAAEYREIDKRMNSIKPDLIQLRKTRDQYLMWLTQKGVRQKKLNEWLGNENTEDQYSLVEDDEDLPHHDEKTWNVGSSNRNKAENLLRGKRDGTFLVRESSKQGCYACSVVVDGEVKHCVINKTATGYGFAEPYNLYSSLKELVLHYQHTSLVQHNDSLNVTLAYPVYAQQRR
Description: (§2) An appropriate substrate and ATP were incubated at a suitable condition for lipid kinase reaction, followed by a two-step detection of kinase activity using an ADP-Glo™ kit. Step I: The kinase reaction was terminated and residual ATP was completely removed, leaving ADP only; Step II: A kinase assay reagent was added to convert ADP to ATP by a luciferin/luciferase reaction. Finally, a fluorescence output value was detected and converted into kinase activity.
(§3) • 2) Kit: ADP-Glo™ lipid kinase and PIP2:3PS kit (Promega #V1792)
The kit comprises: 1 mM PIP2:3PS, 10× lipid dilution buffer, 1 M magnesium chloride, 10 mM ATP, 10 mM ADP, ADP-Glo reagent, detection buffer and substrate. • 3) Plate: OptiPlate-384, white and transparent (PerkinElmer #6007299) Reagent preparation: • 1) 10x reaction buffer: 500 mM HEPES (4-(2-hydroxyethyl)-1-piperazineethanesulfonic acid), pH 7.5, 500 mM NaCl, 9 mM MgCl2; BSA: 10% stock solution, prepared in-house • 2) Condition for final test system: 1× reaction system: 50 mM HEPES, 50 mM NaCl, 3 mM MgCl2, 0.01% BSA (prepared on the day of experiment), 1% DMSO (v/v) +/−compound • 3) Reaction system: 3 μL of enzyme and substrate mixture (1:1) +2 μL of ATP/MgCl2 mixture +5 μL of ADP-Glo reagent +10 μL detection reagent.
The specific experimental procedures are as follows: • 1) Dilution: 50 nL of 100× compound/DMSO solution were transferred into a test plate using Echo • For PI3Kα, the compound was serially diluted by three fold from the highest concentration 0.111 mM to the 10th concentration. • For PI3Kβ/PI3Kδ/PI3Kγ, the compound was serially diluted by three fold from the highest concentration of 1.11 mM to the 10th concentration. • 2) Kinase reaction: • (1) The target compounds were prepared. 50 nL of 100× compound solution or DMSO was added to the corresponding plate • (2) A 3.33 × reaction buffer was prepared • (3) A 3.33× PIP2:3PS solution were prepared; the PIP2:3PS solution should be thawed by vortex for at least 1 min before use • (4) An ATP solution containing 5.25 mM MgCl2 was prepared • (5) 3.33× PI3Kα/PI3Kβ/PI3Kδ/PI3Kγ solutions were prepared • (6) The lipid kinase solution and PIP2:3PS solution were mixed at a volume ratio of 1:1 • (7) The 3.33 × lipid kinase buffer and PIP2:3PS solution were mixed at a volume ratio of 1:1 • (8) 3 μL of the mixed solution of reaction buffer and PIP2:3PS was added to Columns 1 and 2 of the plate • (9) 3 μL of the mixed solution of the enzyme and PIP2:3PS was added to the wells of the plate other than Columns 1 and 2, and was centrifuged for 10 s (1000 rpm). The mixture was incubated at 23° C. for 20 min • (10) 2 μL of ATP solution was added, and the mixture was centrifuged at 1000 rpm and was shaken to mix well • (11) The plate was covered, shaken for about 30 s, and incubated for 2 h at 23° C. • (12) 5 μL of ADP-Glo reagent containing 10 mM MgCl2 was added • (13) The mixture was centrifuged at 1000 rpm for 10 s, covered and shaken for about 30 s, and incubated at 23° C. for 60 min • (14) 10 μL of kinase assay reagent was added • (15) The mixture was centrifuged at 1000 rpm for 10 s, and incubated at 23° C. for 60 min • (16) Fluorescence values were measured by an Envision system. • 2.

PI3K beta = PI3K beta (Homo sapiens, UniProt P42338); test: In vitro enzyme activity assay (ADP-Glo lipid kinase), PI3K beta
PI3K beta, sequence (P42338 whole entry): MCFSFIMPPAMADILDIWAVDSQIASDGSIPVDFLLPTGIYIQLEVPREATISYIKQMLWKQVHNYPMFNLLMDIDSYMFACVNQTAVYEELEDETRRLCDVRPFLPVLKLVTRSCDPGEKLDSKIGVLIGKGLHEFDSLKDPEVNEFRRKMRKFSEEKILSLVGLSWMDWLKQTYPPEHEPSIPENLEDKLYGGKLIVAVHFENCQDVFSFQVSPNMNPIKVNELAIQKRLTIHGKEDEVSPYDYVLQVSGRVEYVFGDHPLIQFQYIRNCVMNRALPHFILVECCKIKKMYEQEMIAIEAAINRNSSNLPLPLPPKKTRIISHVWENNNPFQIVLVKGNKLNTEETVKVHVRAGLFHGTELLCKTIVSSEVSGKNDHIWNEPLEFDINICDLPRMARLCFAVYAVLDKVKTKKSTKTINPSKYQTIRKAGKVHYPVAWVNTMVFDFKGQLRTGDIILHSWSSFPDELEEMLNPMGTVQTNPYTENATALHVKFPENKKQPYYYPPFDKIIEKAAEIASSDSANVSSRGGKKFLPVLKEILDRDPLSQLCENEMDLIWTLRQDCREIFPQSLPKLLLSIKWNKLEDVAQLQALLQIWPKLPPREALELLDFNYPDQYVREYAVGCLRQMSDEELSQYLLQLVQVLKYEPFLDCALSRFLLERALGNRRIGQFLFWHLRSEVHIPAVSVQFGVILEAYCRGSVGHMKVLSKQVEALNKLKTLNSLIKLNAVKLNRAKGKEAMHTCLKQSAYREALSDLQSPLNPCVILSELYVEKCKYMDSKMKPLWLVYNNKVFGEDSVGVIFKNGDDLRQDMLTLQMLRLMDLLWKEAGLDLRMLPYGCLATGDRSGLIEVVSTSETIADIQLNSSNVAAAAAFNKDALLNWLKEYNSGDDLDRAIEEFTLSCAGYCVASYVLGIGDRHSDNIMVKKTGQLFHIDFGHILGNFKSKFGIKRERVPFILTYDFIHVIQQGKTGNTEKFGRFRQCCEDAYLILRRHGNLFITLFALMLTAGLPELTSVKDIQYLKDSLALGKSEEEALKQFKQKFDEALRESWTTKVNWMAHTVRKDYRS
PI3K beta, sequence (P27986 whole entry partner): as the sequence (P27986 whole entry partner) above
Description: as §2, §3
(§4) The mixture was incubated at 23° C. for 20 min • (10) 2 μL of ATP solution was added, and the mixture was centrifuged at 1000 rpm and was shaken to mix well • (11) The plate was covered, shaken for about 30 s, and incubated for 2 h at 23° C. • (12) 5 μL of ADP-Glo reagent containing 10 mM MgCl2 was added • (13) The mixture was centrifuged at 1000 rpm for 10 s, covered and shaken for about 30 s, and incubated at 23° C. for 60 min • (14) 10 μL of kinase assay reagent was added • (15) The mixture was centrifuged at 1000 rpm for 10 s, and incubated at 23° C. for 60 min • (16) Fluorescence values were measured by an Envision system. • 2. […] The mixture was incubated at 37° C./CO2 for 10 min. • 5) The compound was removed by pipette. Lysis buffer was added at 50 μL/well, and the cells wereincubated on a shaker for 30 min. • 6) After the cells were completely lysed, 16 μL of lysate was transferred to a 384-well plate and 4 μL of prepared AC+D2 in the kit was added. (AC: Eu3+-cryptate antibody binds to phosphorylated AKT, while D2 binds to non-phosphorylated AKT) The mixture was incubated at room temperature for 4 h.

PI3K alpha = PI3K alpha (Homo sapiens, UniProt P42336); test: In vitro enzyme activity assay (ADP-Glo lipid kinase), PI3K alpha
PI3K alpha, sequence (P42336 whole entry): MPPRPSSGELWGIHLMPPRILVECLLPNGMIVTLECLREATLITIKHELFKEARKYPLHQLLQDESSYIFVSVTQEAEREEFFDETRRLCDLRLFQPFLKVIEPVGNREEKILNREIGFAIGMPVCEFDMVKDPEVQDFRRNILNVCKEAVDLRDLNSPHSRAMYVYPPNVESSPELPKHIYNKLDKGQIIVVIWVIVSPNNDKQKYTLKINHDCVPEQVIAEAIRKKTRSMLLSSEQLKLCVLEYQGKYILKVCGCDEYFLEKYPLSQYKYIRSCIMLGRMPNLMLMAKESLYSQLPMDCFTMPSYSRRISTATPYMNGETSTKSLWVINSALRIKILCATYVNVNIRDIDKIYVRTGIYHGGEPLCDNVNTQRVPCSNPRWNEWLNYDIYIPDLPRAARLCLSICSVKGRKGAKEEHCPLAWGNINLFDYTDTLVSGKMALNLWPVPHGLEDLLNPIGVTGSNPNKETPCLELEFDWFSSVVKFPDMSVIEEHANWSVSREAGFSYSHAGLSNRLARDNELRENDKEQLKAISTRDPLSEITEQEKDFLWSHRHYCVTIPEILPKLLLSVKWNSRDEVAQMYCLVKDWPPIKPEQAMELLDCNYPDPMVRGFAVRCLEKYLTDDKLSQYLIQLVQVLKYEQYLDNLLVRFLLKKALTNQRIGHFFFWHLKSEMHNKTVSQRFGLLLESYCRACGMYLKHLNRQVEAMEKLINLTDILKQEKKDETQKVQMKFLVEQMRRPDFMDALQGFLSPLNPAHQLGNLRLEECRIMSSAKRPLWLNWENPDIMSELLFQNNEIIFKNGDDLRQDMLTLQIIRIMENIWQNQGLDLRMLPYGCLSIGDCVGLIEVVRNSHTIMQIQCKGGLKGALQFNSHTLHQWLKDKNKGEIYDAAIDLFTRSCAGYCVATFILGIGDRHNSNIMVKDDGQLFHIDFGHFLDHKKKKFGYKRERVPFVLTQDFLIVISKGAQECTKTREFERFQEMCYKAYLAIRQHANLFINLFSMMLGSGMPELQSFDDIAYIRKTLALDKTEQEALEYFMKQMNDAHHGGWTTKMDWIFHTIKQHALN
PI3K alpha, sequence (P27986 whole entry partner): as the sequence (P27986 whole entry partner) above
Description: as §2, §3, §4

Jeko-1 cell = Jeko-1 cell test (IgM-stimulated, phosphorylated AKT readout); assay type: cell-based; details: Homo sapiens, 2 h compound, IgM stimulation 10 min, phospho-AKT
Description: (§1) 7) After incubation, readings at 620 and 665 nm on EnVingen were recorded. • <2> TMD-8 cell viability test • 1) Cell Culture

PI3K gamma = PI3K gamma (Homo sapiens, UniProt P48736); test: In vitro enzyme activity assay (ADP-Glo lipid kinase), PI3K gamma; details: PI3Kγ IC50, ATP 25 μM, PIP2:3PS 50 μM, 120 min
PI3K gamma, sequence (P48736 whole entry): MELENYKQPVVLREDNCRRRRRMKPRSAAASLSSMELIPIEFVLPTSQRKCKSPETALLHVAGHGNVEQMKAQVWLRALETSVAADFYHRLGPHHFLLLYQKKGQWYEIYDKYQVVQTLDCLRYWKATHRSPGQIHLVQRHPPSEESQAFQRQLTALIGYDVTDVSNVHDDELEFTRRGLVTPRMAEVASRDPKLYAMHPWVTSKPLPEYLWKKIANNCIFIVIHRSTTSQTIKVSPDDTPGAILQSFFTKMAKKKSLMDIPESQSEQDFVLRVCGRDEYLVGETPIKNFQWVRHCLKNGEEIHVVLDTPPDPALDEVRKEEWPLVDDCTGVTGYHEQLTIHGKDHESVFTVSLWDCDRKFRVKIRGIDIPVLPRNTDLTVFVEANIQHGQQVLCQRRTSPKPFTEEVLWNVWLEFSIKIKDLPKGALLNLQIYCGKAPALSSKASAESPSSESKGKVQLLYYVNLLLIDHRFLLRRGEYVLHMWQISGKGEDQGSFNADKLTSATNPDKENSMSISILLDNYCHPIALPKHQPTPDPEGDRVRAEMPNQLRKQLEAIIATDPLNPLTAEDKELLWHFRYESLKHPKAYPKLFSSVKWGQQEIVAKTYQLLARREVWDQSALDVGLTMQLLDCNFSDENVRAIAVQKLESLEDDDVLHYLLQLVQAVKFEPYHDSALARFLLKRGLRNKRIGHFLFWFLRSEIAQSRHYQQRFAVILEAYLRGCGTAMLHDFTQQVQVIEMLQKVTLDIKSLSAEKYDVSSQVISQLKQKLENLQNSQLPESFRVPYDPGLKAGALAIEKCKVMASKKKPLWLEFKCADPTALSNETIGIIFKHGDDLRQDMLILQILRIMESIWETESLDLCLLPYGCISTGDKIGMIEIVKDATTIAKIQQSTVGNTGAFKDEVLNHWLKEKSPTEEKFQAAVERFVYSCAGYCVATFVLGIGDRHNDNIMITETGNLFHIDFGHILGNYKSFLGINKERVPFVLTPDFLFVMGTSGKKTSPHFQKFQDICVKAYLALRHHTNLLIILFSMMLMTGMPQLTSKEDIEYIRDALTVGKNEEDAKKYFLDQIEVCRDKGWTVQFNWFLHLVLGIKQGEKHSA
Description: as §2, §3, §4

[1] = In vivo DMPK study, single dose in female Balb/c mice; details: for half-life / clearance / Vd / bioavailability: female, Balb/c; for half-life / clearance / Vd / bioavailability / Cmax: mouse, plasma; for half-life: 1 mg/kg, note lists it as an intravenous parameter, read-out: T1/2 (half-life) (converted); for half-life / clearance / Vd / bioavailability / Oral DNAUC (dose-normalized area under curve): mice; for clearance / Vd: intravenous 1 mg/kg; for clearance: read-out: Cl (clearance); for Vd: read-out: Vd (apparent volume of distribution); for bioavailability: oral 3 mg/kg vs intravenous 1 mg/kg, read-out: F % (oral bioavailability); for Cmax: oral 3 mg/kg, female Balb/c mice
Description: Objective: To evaluate the plasma concentration of the compounds and pharmacokinetics after a single dose in female Balb/c mice.
Procedures: 8 healthy adult female Balb/c mice were randomized, 4 for intravenous administration and 4 for oral administration. The compounds were mixed with a proper amount of vehicle for intravenous injection (DMSO/PEG200/water (5:45:50 v/v/v)). The mixture was vortexed and treated with ultrasound to give a 1.0 mg/mL clear solution. The clear solution was filtered through a microporous membrane filter for later use. For the oral group, the vehicle was 0.5% MC/0.2% Tween 80. The compound was mixed with the vehicle, and the mixture was vortexed and ultrasonically treated to give 1.0 mg/mL uniform suspension for later use. The mice were administered intravenously at 1 mg/kg or orally at 3 mg/kg. Whole blood was collected at certain time points, and plasma was separated. The drug concentration was measured by LC-MS/MS, and pharmacokinetic parameters were calculated using
Phoenix WinNonlin software (Pharsight, USA).

TMD-8 cell = TMD-8 cell viability test (CellTiter-Glo, 72 h); assay type: cell-based; details: Homo sapiens, TMD8
Description: as §1
Cells were regularly passaged. Cells at logarithmic growth phase were transferred to the plate. • 2) Plating • (1). Cells were stained with trypan blue and viable cells were counted. • (2). Cell concentration was adjusted to 7000 cells/well • (3). 90 μL of cell suspension was added to each well of the plate and cell-free medium was added to blank control wells. • (4). The plate was incubated overnight at 37° C., 5% CO2 and 100% relative humidity in an incubator. • 3) Preparation of Plate Containing Compound Stock
(1). Preparation of plate containing 400× compound stock: Compounds were diluted from the highest concentration gradient to lowest concentration with DMSO. • 4) Preparation of 10× compound working solution and treatment • (1). Preparation of 10× compound working solution: 78 μL of cell culture medium was added to a V-bottom 96-well plate, and 2 μL of compound stock solution was pipetted from the plate containing 400× compound stock into the cell cultures of 96-well plate. 2 μL of DMSO was added to the vehicle control wells and blank control wells. After compounds or DMSO was added, the mixture was well mixed by a pipette. • (2). 10 μL of DMSO-cell culture medium mixture solution was added to the vehicle control wells and blank control wells. The final concentration of DMSO was 0.25%. • (3). The 96-well cell plate was incubated in the incubator for another 72 h. • 5) CellTiter-Glo Luminescent Cell Viability Assay
The following procedure was performed according to the instructions of Promega CellTiter-Glo luminescent cell viability assay kit (Promega-G7573). • (1). CellTiter-Glo buffer was thawed and let stand at room temperature. • (2). The CellTiter-Glo substrate was let stand at room temperature. • (3). The CellTiter-Glo buffer was added to a flask of CellTiter-Glo substrate to dissolve the substrate, thereby preparing a CellTiter-Glo working solution. • (4). The solution was vortexed to completely dissolve the substrate. • (5). The plate was incubated at room temperature for 30 min for equilibration. • (6). 50 μL (equal to half the volume of cell culture medium in each well) of CellTiter-Glo working solution was added to each well. The plate was covered by aluminum foil to avoid light. • (7). The plate was shaken on an orbital shaker for 2 min to induce cell lysis. • (8). The plate was let stand at room temperature for 10 min to stabilize the luminescence signals. • (9). The luminescence signals were detected on 2104 EnVision plate reader.

[2] = In vivo DMPK study, single dose in female Balb/c mice; details: mouse, plasma, po, 1 mg/kg, (1 mpk)
[3] = system: human lymphoma TMD-8 subcutaneous xenograft tumors; test: In vivo efficacy study, TMD-8 subcutaneous xenograft in CB-17 SCID mice; design: species or system CB-17 SCID mouse
Description: In Vivo Efficacy Study • Objectives: To evaluate the efficacy of the compounds on human lymphoma TMD-8 subcutaneous xenograft tumors in a CB-17 SCID mouse model. • Procedures: • (1) Cell Culture • Human lymphoma TMD-8 cells (Shanghai Junrui-UFBN1682) were cultivated in an RPMI 1640 medium containing 10% fetal bovine serum, 100 U/mL penicillin and 100 μg/mL streptomycin through monolayer culture in vitro in an incubator at 37° C./5% CO2. The cells were digested with trypsin-EDTA twice a week for passaging as per conventional practice. When the saturation reached 80%-90%, the cells were collected, counted and grafted. • (2) Tumor Cell Grafting
0.2 mL (1×10^7 cells) of TMD-8 cells (along with matrigel in a volume ratio of 1:1) was subcutaneously grafted on the right back of each mouse, and the mice were randomized when the mean tumor volume was 99 mm^3. • (3) Preparation of Test Compound
Vehicle group: 0.5% MC/0.2% Tween 80/99.3% water.
Test compound group: A certain amount of the compound was dissolved in a corresponding volume of vehicle in a brown flask. The mixture was vortexed to give a uniform suspension or clear solution.
The experimental indices were to investigate whether tumor growth was inhibited or delayed or the tumor was cured. Tumor diameters were measured twice weekly using a vernier caliper. The tumor volume was calculated according to the following formula: V=0.5a x b^2, where a and b represent the long diameter and short diameter of the tumor, respectively.
The efficacy of compounds against tumor was evaluated by TGI (%). TGI (%) refers to the rate of tumor growth inhibition.

[4] = Plasma protein binding rate, human; assay type: in vitro ADME; details: read-out: PPB % (plasma protein binding rate) (converted)
[5] = Plasma protein binding rate, mouse; assay type: in vitro ADME; details: read-out: PPB % (plasma protein binding rate) (converted)
[6] = 50 mg/kg(D0-D20) combined with ACP-196 50 mg/kg(D0-D17) + 25 mg/kg(D18-D20)
[7] = 100 mg/kg(D0-D21) combined with ACP-196 75 mg/kg(D0-D21)

| IC50 (PI3K delta) | IC50 (PI3K beta) | IC50 (PI3K alpha) | IC50 (Jeko-1 cell) | IC50 (PI3K gamma) | half-life [1] | clearance [1] | Vd [1] | bioavailability [1] | Oral DNAUC (dose-normalized area under curve) [1] | Cmax [2] | Cmax [1] | fraction unbound [4] | fraction unbound [5] | SMILES | IC50 (TMD-8 cell) | TGI [3, 6] | TGI [3, 7] | TGI ([3]; 25 mg/kg(D0-D20) combined with ACP-196 50 mg/kg(D0-D17) + 25 mg/kg(D18-D20)) | TGI ([3]; 75 mg/kg(D0-D20) combined with ACP-196 50 mg/kg(D0-D17) + 25 mg/kg(D18-D20)) |
| --- | --- | --- | --- | --- | --- | --- | --- | --- | --- | --- | --- | --- | --- | --- | --- | --- | --- | --- | --- |
| 39.9 nM |  |  |  | 2440 nM | 1.76 h | 14.2 mL/min/kg | 1.28 L/kg | 83.8% | 1825 nM · h/mpk | 1400 nM |  |  |  | CC(C)n1cc(-c2nn(C(C)c3nc4ccc(F)cn4c(=O)c3-c3cccc(F)c3)c3ncnc(N)c23)cn1 (stereo not drawn) [WX038] | 2320 nM |  |  |  |  |
| 46.9 nM |  |  |  | 3590 nM | 3.15 h | 5.54 mL/min/kg | 1.43 L/kg | 49.3% | 2583 nM · h/mpk |  | 2620 nM |  |  | COc1ncc(-c2nn(C(C)c3nc4ccc(F)cn4c(=O)c3-c3cccc(F)c3)c3ncnc(N)c23)cn1 (stereo not drawn) [WX042] | 2790 nM | 108.01% |  |  |  |
| 33.5 nM |  |  |  | 2220 nM | 1.99 h |  |  |  | 2406 nM · h/mpk |  | 5260 nM | 0.263 | 0.146 | COCc1ncc(-c2nn(C(C)c3nc4ccc(F)cn4c(=O)c3-c3cccc(F)c3)c3ncnc(N)c23)s1 (stereo not drawn) [WX026] |  |  |  |  |  |
| 54.3 nM | > 10000 nM | > 10000 nM | 580 nM | 2050 nM |  |  |  |  | 2820 nM · h/mpk |  | 3180 nM | 0.256 | 0.192 | COc1ccc(-c2nn(C(C)c3nc4ccc(F)cn4c(=O)c3-c3cccc(F)c3)c3ncnc(N)c23)cn1 (single isomer, unassigned) [WX012] |  |  |  |  |  |

More lines, now with the values behind:

| SMILES | IC50 (PI3K delta) | IC50 (PI3K beta) | IC50 (PI3K alpha) | IC50 (Jeko-1 cell) | IC50 (PI3K gamma) | half-life [1] | clearance [1] | Vd [1] | bioavailability [1] | Oral DNAUC (dose-normalized area under curve) [1] | Cmax [2] | Cmax [1] | fraction unbound [4] | fraction unbound [5] | IC50 (TMD-8 cell) | TGI [3, 6] | TGI [3, 7] | TGI ([3]; 25 mg/kg(D0-D20) combined with ACP-196 50 mg/kg(D0-D17) + 25 mg/kg(D18-D20)) | TGI ([3]; 75 mg/kg(D0-D20) combined with ACP-196 50 mg/kg(D0-D17) + 25 mg/kg(D18-D20)) |
| --- | --- | --- | --- | --- | --- | --- | --- | --- | --- | --- | --- | --- | --- | --- | --- | --- | --- | --- | --- |
| CC(C)Oc1ccc(-c2nn(C(C)c3nc4ccc(F)cn4c(=O)c3-c3cccc(F)c3)c3ncnc(N)c23)cn1 (single isomer, unassigned) [WX004] | 257 nM | > 10000 nM | > 10000 nM | 1320 nM | 1220 nM |  |  |  |  |  |  |  |  |  |  |  |  |  |  |
| COc1ncc(-c2nn(C(C)c3nc4ccc(F)cn4c(=O)c3-c3cccc(F)c3)c3ncnc(N)c23)cc1C#N (single isomer, unassigned) [WX005] | 120 nM | > 10000 nM | > 10000 nM | 828 nM | 8060 nM |  |  |  |  |  |  |  |  |  |  |  |  |  |  |
| COc1ncc(-c2nn(C(C)c3nc4ccc(F)cn4c(=O)c3-c3cccc(F)c3)c3ncnc(N)c23)s1 (single isomer, unassigned) [WX007] | 1.88 nM |  |  | 125 nM | 188 nM | 0.644 h | 36.7 mL/min/kg | 1.75 L/kg | 84.7% | 674.0 nM · h/mpk |  | 1590 nM | 0.217 | 0.086 | 589 nM |  | 103.16% |  |  |
| CC(C)Oc1ccc(-c2nn([C@@H](C)c3oc4ccc(F)cc4c(=O)c3-c3cccc(F)c3)c3ncnc(N)c23)cc1F [TGR-1202, reference compound] |  | > 10000 nM | > 10000 nM | 478 nM | 818 nM | 5.66 h | 8.54 mL/min/kg | 4.2 L/kg | 91.7% | 3043 nM · h/mpk |  | 651 nM | 0.003 | 0.003 | 4050 nM |  | 103.25% |  |  |
| CC(C)Oc1ccc(-c2nn(C(C)c3nc4ccc(F)cn4c(=O)c3-c3cccc(F)c3)c3ncnc(N)c23)cc1F (single isomer, unassigned) [WX001] | 397 nM | > 10000 nM | > 10000 nM | 614 nM | 472 nM | 4.8 h | 4.44 mL/min/kg | 2.02 L/kg | 101% | 7179 nM · h/mpk |  | 1610 nM | 0.034 | 0.023 | 2970 nM | 108.14% | 103.95% | 108.10% | 108.10% |
